Measured values as given in US20240083861A1, “HSD17B13 INHIBITORS AND USES THEREOF” (FL2022-001, Inc., priority 2020, published 2024).

Biological target: T1, Recombinant human HSD17B13 enzyme (Homo sapiens, UniProt Q7Z5P4)
T1 sequence (Q7Z5P4 20-300): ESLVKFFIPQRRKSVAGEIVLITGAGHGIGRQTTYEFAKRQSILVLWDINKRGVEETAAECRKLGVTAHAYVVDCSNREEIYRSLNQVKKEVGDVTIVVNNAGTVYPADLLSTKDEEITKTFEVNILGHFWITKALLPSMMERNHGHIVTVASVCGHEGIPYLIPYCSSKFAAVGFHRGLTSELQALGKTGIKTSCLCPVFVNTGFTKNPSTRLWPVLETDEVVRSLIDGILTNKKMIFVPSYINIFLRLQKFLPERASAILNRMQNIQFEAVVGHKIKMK
Assay: HSD17b13 NAD(P)H-Glo biochemical assay
Settings: 50 uM estradiol, 1 mM NAD+, NAD(P)H-Glo luminescence; read-out: HSD17β13 IC50
Experimental: Example B-1: HSD17b13 NAD(P)H-Glo Biochemical Assay
Recombinant human HSD17B13 enzyme. Substrate: estradiol (Sigma β-Estradiol E8875), 100 mM in DMSO. Cofactor: NAD+ Grade I free acid (Sigma 10127965001), 20 mM in H2O. Assay buffer final concentration: 20 mM Tris pH7.4 with 0.002% Tween-20 and 0.02% BSA. Assay performed in 384 well solid bottom plate (Corning 3570). Enzymatic activity detected by NAD(P)H-Glo™ Detection System (Promega G9062).
Inhibitor compounds were serially diluted in DMSO and then further diluted in assay buffer to a 10× concentration consisting of 1% DMSO.
HSD17b13 enzyme was diluted in 1× assay buffer to the desired enzyme concentration based on the specific activity of the enzyme lot. 20 uL of diluted enzyme was added to each well along with 2.5 uL of 10× inhibitor solution. Assay plate was incubated at RT for 20 minutes, and then 2.5 uL of a 10× substrate/cofactor mix was added to each well for a final concentration of 50 uM estradiol and 1 mM NAD+. Assay plate was incubated at 37° C. for 3 hours. NAD(P)H-Glo™ Detection System reagents were prepared according to manufacturer's specifications, and 25 uL was added to each well. After incubating for 1 hour at RT, luminescence was measured.

Row | SMILES | IC50 [nM]
1 | O=C(NC1CCC1)c1ccc2oc(-c3cc(O)c(F)c(F)c3)nc2c1 [Compound 1, N-Cyclobutyl-2-(3,4-difluoro-5-hydroxyphenyl)benzo[d]oxazole-5-carboxamide] | < 100
2 | O=C(NC1CC1)c1ccc2oc(-c3cc(O)c(F)c(F)c3)nc2c1 [Compound 1.01, N-Cyclopropyl-2-(3,4-difluoro-5-hydroxyphenyl)benzo[d]oxazole-5-carboxamide] | 1000 to 30000
3 | O=C(NC1CCCC1)c1ccc2oc(-c3cc(O)c(F)c(F)c3)nc2c1 [Compound 1.02, N-Cyclopentyl-2-(3,4-difluoro-5-hydroxyphenyl)benzo[d]oxazole-5-carboxamide] | < 100
4 | O=C(NC1CCCCC1)c1ccc2oc(-c3cc(O)c(F)c(F)c3)nc2c1 [Compound 1.03, N-Cyclohexyl-2-(3,4-difluoro-5-hydroxyphenyl)benzo[d]oxazole-5-carboxamide] | < 100
5 | CS(=O)(=O)N1CCN(C(=O)c2ccc3oc(-c4cc(O)c(F)c(F)c4)nc3c2)CC1 [Compound 1.04, (2-(3,4-Difluoro-5-hydroxyphenyl)benzo[d]oxazol-5-yl)(4-(methylsulfonyl)piperazin-1-yl)methanone] | 1000 to 30000
6 | CS(=O)(=O)NC1CN(C(=O)c2ccc3oc(-c4cc(O)c(F)c(F)c4)nc3c2)C1 [Compound 1.05, N-(1-(2-(3,4-Difluoro-5-hydroxyphenyl)benzo[d]oxazole-5-carbonyl)azetidin-3-yl)methanesulfonamide] | 100 to 1000
7 | O=C(c1ccc2oc(-c3cc(O)c(F)c(F)c3)nc2c1)N1CCOCC1 [Compound 1.06, (2-(3,4-Difluoro-5-hydroxyphenyl)benzo[d]oxazol-5-yl)(morpholino)methanone] | 100 to 1000
8 | O=C(NC1CCOCC1)c1ccc2oc(-c3cc(O)c(F)c(F)c3)nc2c1 [Compound 1.07, 2-(3,4-Difluoro-5-hydroxyphenyl)-N-(tetrahydro-2H-pyran-4-yl)benzo[d]oxazole-5-carboxamide] | 100 to 1000
9 | COC1CCN(C(=O)c2ccc3oc(-c4cc(O)c(F)c(F)c4)nc3c2)CC1 [Compound 1.08, (2-(3,4-Difluoro-5-hydroxyphenyl)benzo[d]oxazol-5-yl)(4-methoxypiperidin-1-yl)methanone] | 1000 to 30000
10 | O=C(NC12CC(C1)C2)c1ccc2oc(-c3cc(O)c(F)c(F)c3)nc2c1 [Compound 1.09, N-(Bicyclo[1.1.1]pentan-1-yl)-2-(3,4-difluoro-5-hydroxyphenyl)benzo[d]oxazole-5-carboxamide] | < 100
11 | O=C(NC12CC(C1)C2)c1ccc2oc(-c3cc(O)c(F)c(C(F)(F)F)c3)nc2c1 [Compound 1.10, N-(Bicyclo[1.1.1]pentan-1-yl)-2-(4-fluoro-3-hydroxy-5-(trifluoromethyl)phenyl)benzo[d]oxa-zole-5-carboxamide] | < 100
12 | O=C(NC12CC(O)(C1)C2)c1ccc2oc(-c3cc(O)c(F)c(C(F)(F)F)c3)nc2c1 [Compound 1.11, 2-(4-Fluoro-3-hydroxy-5-(trifluoromethyl)phenyl)-N-(3-hydroxybicyclo[1.1.1]pentan-1-yl)benzo[d]oxazole-5-carboxamide] | 100 to 1000
13 | O=C(NC12CC(C1)C2)c1ccc2oc(-c3cc(C(F)(F)F)cc(O)c3F)nc2c1 [Compound 1.12, N-(Bicyclo[1.1.1]pentan-1-yl)-2-(2-fluoro-3-hydroxy-5-(trifluoromethyl)phenyl)benzo[d]oxa-zole-5-carboxamide] | < 100
14 | O=C(NC12CC(C1)C2)c1ccc2oc(-c3cc(C(F)(F)F)c(F)c(O)c3F)nc2c1 [Compound 1.13, N-(Bicyclo[1.1.1]pentan-1-yl)-2-(2,4-difluoro-3-hydroxy-5-(trifluoromethyl)phenyl)benzo[d]oxa-zole-5-carboxamide] | < 100
15 | O=C(NC1CCC1)c1ccc2oc(-c3cc(C(F)(F)F)c(F)c(O)c3F)nc2c1 [Compound 1.14, N-Cyclobutyl-2-(2,4-difluoro-3-hydroxy-5-(trifluoromethyl)phenyl)benzo[d]oxa-zole-5-carboxamide] | < 100
16 | CN(C(=O)c1ccc2oc(-c3cc(C(F)(F)F)c(F)c(O)c3F)nc2c1)C1CCC1 [Compound 1.15, N-Cyclobutyl-2-(2,4-difluoro-3-hydroxy-5-(trifluoromethyl)phenyl)-N-methylbenzo[d]oxazole-5-carboxamide] | 100 to 1000

Row | SMILES | IC50 [nM]
17 | CO[C@H]1C[C@H](NC(=O)c2ccc3oc(-c4cc(C(F)(F)F)c(F)c(O)c4F)nc3c2)C1 [Compound 1.16, 2-(2,4-Difluoro-3-hydroxy-5-(trifluoromethyl)phenyl)-N-(trans-3-methoxycyclobutyl)benzo[d]oxazole-5-carboxamide] | 100 to 1000
18 | O=C(c1ccc2oc(-c3cc(C(F)(F)F)c(F)c(O)c3F)nc2c1)N1CCC1 [Compound 1.17, Azetidin-1-yl(2-(2,4-difluoro-3-hydroxy-5-(trifluoromethyl)phenyl)benzo[d]oxa-zol-5-yl)methanone] | 100 to 1000
19 | CN1CC(NC(=O)c2ccc3oc(-c4cc(C(F)(F)F)c(F)c(O)c4F)nc3c2)C1 [Compound 1.18, 2-(2,4-Difluoro-3-hydroxy-5-(trifluoromethyl)phenyl)-N-(1-methylazetidin-3-yl)benzo[d]oxazole-5-carboxamide] | 1000 to 30000
20 | O=C(NC1COC1)c1ccc2oc(-c3cc(C(F)(F)F)c(F)c(O)c3F)nc2c1 [Compound 1.19, 2-(2,4-Difluoro-3-hydroxy-5-(trifluoromethyl)phenyl)-N-(oxetan-3-yl)benzo[d]oxazole-5-carboxamide] | 100 to 1000
21 | CS(=O)(=O)N1CC(NC(=O)c2ccc3oc(-c4cc(C(F)(F)F)c(F)c(O)c4F)nc3c2)C1 [Compound 1.20, 2-(2,4-Difluoro-3-hydroxy-5-(trifluoromethyl)phenyl)-N-(1-(methylsulfonyl)azetidin-3-yl)benzo[d]oxazole-5-carboxamide] | 100 to 1000
22 | O=C(NC12COC(C1)C2)c1ccc2oc(-c3cc(C(F)(F)F)c(F)c(O)c3F)nc2c1 [Compound 1.21, N-(2-Oxabicyclo[2.1.1]hexan-4-yl)-2-(2,4-difluoro-3-hydroxy-5-(trifluoromethyl)phenyl)benzo[d]oxa-zole-5-carboxamide] | 100 to 1000
23 | O=C(NC1CCCC1)c1ccc2oc(-c3cc(C(F)(F)F)c(F)c(O)c3F)nc2c1 [Compound 1.22, N-Cyclopentyl-2-(2,4-difluoro-3-hydroxy-5-(trifluoromethyl)phenyl)benzo[d]oxa-zole-5-carboxamide] | < 100
24 | CC1(NC(=O)c2ccc3oc(-c4cc(C(F)(F)F)c(F)c(O)c4F)nc3c2)CCC1 [Compound 1.23, 2-(2,4-Difluoro-3-hydroxy-5-(trifluoromethyl)phenyl)-N-(1-methylcyclobutyl)benzo[d]oxazole-5-carboxamide] | < 100
25 | O=C(NC12CC(C1)C2)c1cc2nc(-c3cc(O)c(F)c(C(F)(F)F)c3)oc2cn1 [Compound 1.24, N-(Bicyclo[1.1.1]pentan-1-yl)-2-(4-fluoro-3-hydroxy-5-(trifluoromethyl)phenyl)oxazolo[5,4-c]pyridine-6-carboxamide] | < 100
26 | N#CC1(NC(=O)c2ccc3oc(-c4cc(C(F)(F)F)c(F)c(O)c4F)nc3c2)CCC1 [Compound 1.25, N-(1-Cyanocyclobutyl)-2-(2,4-difluoro-3-hydroxy-5-(trifluoromethyl)phenyl)benzo[d]oxa-zole-5-carboxamide] | < 100
27 | COCC1(NC(=O)c2ccc3oc(-c4cc(C(F)(F)F)c(F)c(O)c4F)nc3c2)CCC1 [Compound 1.26, 2-(2,4-Difluoro-3-hydroxy-5-(trifluoromethyl)phenyl)-N-(1-(methoxymethyl)cyclobutyl)benzo[d] oxazole-5-carboxamide] | < 100
28 | O=C(NC1(CCO)CCC1)c1ccc2oc(-c3cc(C(F)(F)F)c(F)c(O)c3F)nc2c1 [Compound 1.27, 2-(2,4-Difluoro-3-hydroxy-5-(trifluoromethyl)phenyl)-N-(1-(2-hydroxyethyl)cyclobutyl)benzo[d]oxa-zole-5-carboxamide] | 100 to 1000
29 | O=C(NC1(CO)CCC1)c1ccc2oc(-c3cc(C(F)(F)F)c(F)c(O)c3F)nc2c1 [Compound 1.28, 2-(2,4-Difluoro-3-hydroxy-5-(trifluoromethyl)phenyl)-N-(1-(hydroxymethyl)cyclobutyl)benzo[d] oxazole-5-carboxamide] | 100 to 1000
30 | N#CCC1(NC(=O)c2ccc3oc(-c4cc(C(F)(F)F)c(F)c(O)c4F)nc3c2)CCC1 [Compound 1.29, N-(1-(Cyanomethyl)cyclobutyl)-2-(2,4-difluoro-3-hydroxy-5-(trifluoromethyl)phenyl)benzo[d]oxa-zole-5-carboxamide] | < 100
31 | O=C(NCC1(O)CCC1)c1ccc2oc(-c3cc(C(F)(F)F)c(F)c(O)c3F)nc2c1 [Compound 1.30, 2-(2,4-Difluoro-3-hydroxy-5-(trifluoromethyl)phenyl)-N-((1-hydroxycyclobutyl)methyl)benzo[d] oxazole-5-carboxamide] | 100 to 1000
